Where a name gives a salt, the structure may show the parent alone.

Data set [1] deals with histone deacetylase (HeLa nuclear extracts). Description: In vitro assay for inhibition of histone deacetylase (example C.1.c, HeLa nuclear extracts). The format is biochemical. The following applies: HeLa nuclear extract, 45 min at 37° C.; work performed by Reaction Biology Corp. As to the method: The in vitro assay for inhibition of histone deacetylase (see example C.1) measures the inhibition of HDAC enzymatic activity obtained with the compounds of formula (I).
HeLa nuclear extracts (prepared by high salt extraction of HeLa nuclei, J. D. Dignam et al., S. M. Abmayr et al) were incubated with 9 mg/ml in 0.1M KCl, 20 mM HEPES/NaOH, pH 7.9, 20% (v/v) glycerol, 0.2 mM EDTA, 0.5 mM DTT, 0.5 mM PMSF of enzyme. After 45 min, at 37° C. the deacetylation reaction was terminated. The developer reaction (also at 37° C.) was read in a time dependent manner for an hour. For each experiment, controls (containing HeLa nuclear extract and DMSO without compound) and samples (containing compound dissolved in DMSO and HeLa nuclear extract) were run in parallel. The compounds were tested at concentrations between 10^−5M and 10^−12M. The control sample represented 100% of substrate deactylation. For each sample the activity was expressed as a percentage of the mean value of the controls. Appropriate IC50-values (concentration of the drug, needed to reduce the amount of metabolites to 50% of the control) were computed using the Prism program. Herein the effects of test compounds are expressed as pIC50 (the negative log value of the IC50-value) (see Table F-2). Work was performed by Reaction Biology Corp. (Malvern, Pa., USA).

A further data set deals with HCT116 cells. As to the kind of experiment: Antiproliferative activity on HCT116 cells (Alamar Blue assay, example C.2). The format is cell-based. The following applies: HCT-116, 96 h, Human colon carcinoma HCT116 cells, 4-day incubation, read-out: Cellular activity pIC50 C.2 (converted). As to the method:
Cellular activity of the compounds of formula (I) was determined on HCT116 tumour cells using a colorimetric assay for cell toxicity or survival (Mosmann Tim, Journal of Immunological Methods 65: 55-63, 1983) (see example C.2).
Human colon carcinoma HCT116 cells obtained from the ATCC were cultured in McCoy's 5A medium supplemented with 2 mM L-Glutamine, 50 μg/ml gentamicin and 10% heat inactivated fetal calf serum.
Reagents Used in the Alamar Blue Assay
Resazurin was purchased from Aldrich (Prod. No. 199303). Potassium ferrocyanide, potassium ferricyanide, KH2PO4 and K2HPO4 were purchased from Sigma (Prod. Nos. P9387, P8131, P5655 and P8281, respectively).
Potassium Phosphate Buffer 0.1 M (PPB) was made as follows: 2.72 gram KH2PO4 and 13.86 gram K2HPO4 were dissolved in 500 ml milli-Q H2O, the pH was adjusted to pH 7.4 and the volume was brought to 1 liter with milli-Q H2O; the buffer was filter sterilised and stored at room temperature. Resazurin stock solution (PPB-A) was prepared fresh by dissolving 45 mg resazurin in 15 ml PBS. 30 mM potassium ferricyanide (PPB-B) was prepared by dissolving 0.987 gram potassium ferricyanide in 100 ml PPB. 30 mM potassium ferrocyanide (PPB-C) was prepared by dissolving 1.266 gram potassium ferrocyanide in 100 ml PPB.
Mixture of PPB-A, PPB-B and PPB-C was prepared by mixing equal volumes of the respective solutions. Resazurin work solution (herein termed “Alamar Blue” solution) was prepared by diluting said mixture 20× (vol/vol) in PPB and filter sterilising; the Alamar Blue solution could be kept at 4° C. for a maximum of 2 weeks.
Procedure of the Alamar Blue Assay
For experiments in 384 wells plates the cells were seeded at a density of 4.5×10^3 cells/ml in Falcon 384-well culture plates (Life Technologies, Merelbeke, Belgium), black with clear bottom, in 45 μl culture medium. Cells were allowed to adhere to plastic for 24 hr. The tested compound was pre-diluted (1/50 in culture medium) and 5 μl pre-diluted compound was added to the wells. Following 4-day incubation, 10 μl of the Alamar Blue solution was added to each well and the cells were further incubated for 4 hrs (HCT116) or 24 hrs (PC-3) at 37° C. The fluorescence intensity was measured for each well on a Fluorescence plate reader (Fluorskan, Labsystems, 540 nm excitation and 590 nm emission)
The antiproliferative activity was calculated as percentage of remaining viable cells in treated versus control (untreated cells) conditions. Within an experiment, the result for each experimental condition is the mean of 3 replicate wells. When appropriate, the experiments were repeated to establish full concentration-response curves. When appropriate, IC50-values (concentration of the drug, needed to reduce cell growth to 50% of the control) were computed using probit analysis for graded data (Finney, D. J., Probit Analyses, 2nd Ed. Chapter 10, Graded Responses, Cambridge University Press, Cambridge 1962). Herein the effects of test compounds are expressed as pIC50 (the negative log value of the IC50-value) (see Table F-2).

Consider `Cn1cc(CNCC2C3CN(c4ncc(C(=O)NO)cn4)CC23)c2ccccc21` (centres unmarked) (as salt: trifluoroacetate) [Compound 1], for which the melting point (usually the temperature, or range, at which the solid turns liquid) was found to be 150 °C.

Consider `Cn1cc(CNC2C3CN(c4ncc(C(=O)NO)cn4)CC32)c2ccccc21` (centres unmarked) (as salt: trifluoroacetate) [Compound 2], for which the melting point was found to be 157 °C.

On to `Cn1cc(CNCC2C3CN(c4ncc(C(=O)NO)cn4)CC23)c2ccccc21` (centres unmarked) [Compound 1], for which, in data set [1], the “Enzymatic activity pIC50 C.1.c.” value is listed as 8.39. Also, the IC50 in the data set with HCT116 cells is 89.1 nM.

On to `Cn1cc(CNC2C3CN(c4ncc(C(=O)NO)cn4)CC32)c2ccccc21` (centres unmarked) [Compound 2], for which, in data set [1], the “Enzymatic activity pIC50 C.1.c.” value came out at 8.62. Moreover, the IC50 in the data set with HCT116 cells was 661 nM.

As to `Cn1cc(CNCC2C3CN(c4ncc(C(=O)NO)cn4)CC23)c2cc(Cl)ccc21` (centres unmarked) [Compound 3], in the data set with HCT116 cells, the IC50 is 75.9 nM.

On to `Cn1cc(CNCC2C3CN(c4ncc(C(=O)NO)cn4)CC23)c2cc(F)ccc21` (centres unmarked) [Compound 4], for which, in the data set with HCT116 cells, the IC50 is 81.3 nM.

In the case of `Cn1cc(CNCC2C3CN(c4ncc(C(=O)NO)cn4)CC23)c2cc(C#N)ccc21` (centres unmarked) [Compound 5], the IC50 in the data set on HCT116 cells was 398 nM.

As to `CCCn1cc(CNCC2C3CN(c4ncc(C(=O)NO)cn4)CC23)c2cc(Cl)ccc21` (centres unmarked) [Compound 6], in the data set with HCT116 cells, the IC50 is 35.5 nM.

Consider `CCCn1cc(CNCC2C3CN(c4ncc(C(=O)NO)cn4)CC23)c2cc(F)ccc21` (centres unmarked) [Compound 7], for which the IC50 with HCT116 cells was 25.7 nM.

The values are drawn from US8476289B2, “Aza-bicyclohexyl substituted indolyl alkyl amino derivatives as novel inhibitors of histone deacetylace” (Janssen Pharmaceutica NV, priority 2008, dated 2013).
